From PubChem BioAssay (NCI)
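Compound exposure: 48 hours, 5 concentrations, 96-well plates. Definition used: TGI = concentration required for complete inhibition of growth.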

Tests used:
Assay in all cases: growth of human tumour cells (NCI), 48 h
BT-549 breast = tested on: BT-549 breast
LOX IMVI melanoma = tested on: LOX IMVI melanoma
CCRF-CEM leukemia = tested on: CCRF-CEM leukemia
HOP-62 NSCLC = tested on: HOP-62 NSCLC
MALME-3M melanoma = tested on: MALME-3M melanoma
MCF7 breast = tested on: MCF7 breast
SK-MEL-5 melanoma = tested on: SK-MEL-5 melanoma
OVCAR-4 ovarian = tested on: OVCAR-4 ovarian
COLO 205 colon = tested on: COLO 205 colon
MDA-MB-435 = tested on: MDA-MB-435
SNB-19 CNS = tested on: SNB-19 CNS
PC-3 prostate = tested on: PC-3 prostate
NCI-H23 lung = tested on: NCI-H23 lung
IGROV1 ovarian = tested on: IGROV1 ovarian
DU-145 prostate = tested on: DU-145 prostate
EKVX NSCLC = tested on: EKVX NSCLC
OVCAR-3 ovarian = tested on: OVCAR-3 ovarian
HL-60(TB) leukemia = tested on: HL-60(TB) leukemia
OVCAR-8 ovarian = tested on: OVCAR-8 ovarian
A498 renal = tested on: A498 renal

Row | SMILES | TGI (BT-549 breast) [µM] | TGI (LOX IMVI melanoma) [µM] | TGI (CCRF-CEM leukemia) [µM] | TGI (HOP-62 NSCLC) [µM] | TGI (MALME-3M melanoma) [µM] | TGI (MCF7 breast) [µM] | TGI (SK-MEL-5 melanoma) [µM] | TGI (OVCAR-4 ovarian) [µM] | TGI (COLO 205 colon) [µM] | TGI (MDA-MB-435) [µM] | TGI (SNB-19 CNS) [µM] | TGI (PC-3 prostate) [µM] | TGI (NCI-H23 lung) [µM] | TGI (IGROV1 ovarian) [µM] | TGI (DU-145 prostate) [µM] | TGI (EKVX NSCLC) [µM] | TGI (OVCAR-3 ovarian) [µM] | TGI (HL-60(TB) leukemia) [µM] | TGI (OVCAR-8 ovarian) [µM] | TGI (A498 renal) [µM]
1 | CCOC(=O)CN=C1NNS(=O)(=O)c2ccccc21 | > 100 | > 100 | > 100 | > 100 | > 100 | > 100 | > 100 | > 100 | > 100 | > 100 | > 100 | > 100 | > 100 | > 100 | > 100 | > 100 | > 100 | > 100 | > 100 | > 100
2 | Cc1ccc(NC(=O)c2cccc(OP(=O)(O)Nc3ccc(C)cc3)c2)cc1 | > 100 | > 100 | > 100 | > 100 | > 100 | > 100 | > 100 | > 100 | > 100 | > 100 | > 100 | > 100 | > 100 | > 100 | > 100 | > 100 | > 100 | > 100 | > 100 | > 100
3 | O=c1c2cc(S(=O)(=O)O)ccc2nc(COc2ccc(Oc3ccc(Cl)cc3Cl)cc2)n1-c1ccc(Cl)cc1Oc1c(Cl)cccc1Cl | 61.1 | 32.2 | > 100 | > 100 | > 100 | 45.6 | 32.1 | > 100 | 32.1 | 66.5 | > 100 | > 100 | 57.1 | > 100 | > 100 | 40.4 | 61.1 | > 100 | 75.1 | 67.3
4 | O=C1O/C(=C(/Cl)c2cccc3ccccc23)c2ccccc21 | > 100 |  |  | > 100 | > 100 | > 100 | > 100 | > 100 | > 100 | > 100 | > 100 | > 100 | > 100 | > 100 | > 100 | > 100 | > 100 | > 100 | > 100 | > 100
5 | CC(C)(C)C1=CC(=C(c2ccc(-c3c4nc(c(-c5ccc(C(=C6C=C(C(C)(C)C)C(=O)C(C(C)(C)C)=C6)c6cc(C(C)(C)C)c(O)c(C(C)(C)C)c6)cc5)c5ccc([nH]5)c(-c5ccc(C(=C6C=C(C(C)(C)C)C(=O)C(C(C)(C)C)=C6)c6cc(C(C)(C)C)c(O)c(C(C)(C)C)c6)cc5)c5nc(c(-c6ccc(C(=C7C=C(C(C)(C)C)C(=O)C(C(C)(C)C)=C7)c7cc(C(C)(C)C)c(O)c(C(C)(C)C)c7)cc6)c6ccc3[nH]6)C=C5)C=C4)cc2)c2cc(C(C)(C)C)c(O)c(C(C)(C)C)c2)C=C(C(C)(C)C)C1=O | > 100 | > 100 | > 100 | > 100 | > 100 | > 100 | > 100 | > 100 | > 100 | > 100 | > 100 | > 100 | > 100 | > 100 | > 100 | > 100 | > 100 | > 100 | > 100 | > 100
6 | COc1cc(/C=C2\N=C(c3ccccc3)N(c3nc4c(OC)ccc(OC)c4s3)C2=O)ccc1O | > 100 | 53.2 | > 100 | > 100 | > 100 | 33.2 | > 100 |  | > 100 | 50.7 | > 100 | > 100 | > 100 | > 100 | > 100 | > 100 | > 100 | > 100 | > 100 | > 100
7 | COc1cc(OC)c2c(=O)c(OC)c(-c3ccc4c(c3)OCO4)oc2c1 | > 100 | 48.8 | > 100 | 74.6 | > 100 | > 100 | > 100 | > 100 | > 100 | > 100 | 62.7 | > 100 | 64 | > 100 | > 100 | > 100 | > 100 | > 100 | > 100 | 57.1
8 | COC(=O)C1C(=O)C=CN([C@H](C)c2ccccc2)[C@@H]1Cc1ccc(OC)c(OCc2ccccc2)c1I (stereo partly specified) | 38 | 27.8 | > 100 | 52.4 | 39.6 | 49.3 | 27.4 | 79.9 | 31.7 | 47.8 | 86.4 | > 100 | 40.3 | 29.5 | 42.6 | > 100 | 28.2 | 79 | > 100 | 34.8
9 | CN(C)CCCN1c2ccccc2Sc2cnccc21 | > 100 | > 100 | > 100 | > 100 | > 100 | > 100 | > 100 | > 100 | > 100 | > 100 | > 100 | > 100 |  | > 100 | > 100 | > 100 | > 100 | > 100 | > 100 | > 100
10 | NC(N)=N/N=C/c1c(-c2cccc([N+](=O)[O-])c2)nc2n1CCS2 | 32.2 | 73.1 | > 100 | > 100 | 38.1 | 36.1 | 32.5 | 29.8 | 60.6 | 55.3 | 32.1 | 44.5 | 58.9 | 30.9 | 36.4 | 54.5 | 63 | 45.6 | 39.3 | 32.9
11 | O=C1C=CC=C/C1=C1\N=C(c2ccccc2OCC(=O)c2ccc(Br)cc2)SS1 | 62.9 | > 100 | > 100 | 24 | > 100 | > 100 | > 100 | > 100 | > 100 | > 100 | > 100 | > 100 | > 100 | 71.3 | > 100 | > 100 | > 100 | > 100 | > 100 | > 100
